Data as given in patent publication US8029764B2, “Methods for detection of colorectal cancer” (The Johns Hopkins University, priority 2001, dated 2011).

System: colorectal tissue transcripts
Test: SAGE of normal, adenoma and cancer colorectal tissue (transcript tag counts)
Set-up: species or system human
Conditions: for AD1 (SAGE tag count): SAGE library AD1; for AD2 (SAGE tag count): SAGE library AD2; for CA1 (SAGE tag count): SAGE library CA1; for CA2 (SAGE tag count): SAGE library CA2; for NC1 (SAGE tag count): SAGE library NC1; for NC2 (SAGE tag count): SAGE library NC2
Description: In an effort to identify potential molecular markers of early colorectal tumors, we have here analyzed gene expression in benign and malignant colorectal tumors in an unbiased and comprehensive fashion. We used SAGE to analyze global gene expression in normal, benign and malignant colorectal tissue. SAGE is a gene expression profiling method that associates individual mRNA transcripts with 15-base tags derived from specific positions near their 3′ termini (3). The abundance of each tag provides a quantitative measure of the transcript level present within the mRNA population studied. SAGE is not dependent on pre-existing databases of expressed genes, and therefore provides an unbiased view of gene expression profiles. For the current study, SAGE libraries derived from two samples of normal colonic epithelium, two colorectal adenomas, and two colorectal cancers were analyzed.
SAGE. For the initial SAGE^3 of benign tumors, fresh adenomas were obtained from surgical specimens derived from FAP patients. Adenomas from FAP patients were employed because of the ready availability of small lesions and the certainty of inactivation of the APC pathway which initiates the formation of the majority of sporadic tumors. After histopathological verification of the neoplastic nature of the lesion (>70% neoplastic cells), total RNA was isolated by solubilizing the tissue in RNAgents Lysis Buffer (Promega, Madison, Wis.) followed by ultracentrifugation over a cesium chloride gradient. mRNA selection was performed from the purified total RNA using oligo(dT) cellulose (Life Technologies, Gaithersburg, Md.). […] Tags were extracted from the raw sequence data and, after excluding repeated ditags, linker sequences, and tags from the polyrnorphic Major Histocompatibility loci, the resulting tag libraries were compared and statistical analysis performed using SAGE software, version 4.0. Data from the libraries are publicly available at the Uniform Resource Locator (URL) address for the http file type found on the www host server that has a domain name of ncbi.nlm.nih.gov, and a path to the directory SAGE, and detailed SAGE protocols are available at the Uniform Resource Locator (URL) address for the http file type found on the www host server that has a domain name of sagenet.org, and file name of sage_protocol.htn.

Row | Sequence | AD1 (SAGE tag count) | AD2 (SAGE tag count) | CA1 (SAGE tag count) | CA2 (SAGE tag count) | NC1 (SAGE tag count) | NC2 (SAGE tag count)
1 | AAATCTGGCA (chemistry not fully specified) | 2 | 4 | 2 | 0 | 16 | 15
2 | AACGTGCAGG (chemistry not fully specified) | 13 | 6 | 7 | 8 | 29 | 31
3 | AAGAAAGCTC (chemistry not fully specified) | 0 | 2 | 1 | 5 | 20 | 6
4 | AAGAAGCAGG (chemistry not fully specified; the letters are possibly those of the target site) | 3 | 4 | 1 | 3 | 8 | 16
5 | AAGGTAGCAG (chemistry not fully specified) | 2 | 4 | 2 | 4 | 15 | 16
6 | AATAAAGGCT (chemistry not fully specified) | 3 | 7 | 3 | 4 | 25 | 11
7 | AATAGTTTCC (chemistry not fully specified) | 2 | 3 | 6 | 1 | 7 | 16
8 | AATCACAAAT (chemistry not fully specified) | 1 | 4 | 14 | 3 | 18 | 45
9 | AATGAGAAGG (chemistry not fully specified) | 0 | 0 | 1 | 0 | 11 | 3
10 | ACAATTGGTC (chemistry not fully specified) | 0 | 0 | 0 | 0 | 0 | 10
11 | ACACCCATCA (chemistry not fully specified) | 1 | 0 | 5 | 3 | 2 | 27
12 | ACAGGGTGAC (chemistry not fully specified) | 1 | 8 | 7 | 6 | 25 | 13
13 | ACATTGGGTG (chemistry not fully specified) | 67 | 34 | 96 | 33 | 377 | 334
14 | ACCCAACTGC (chemistry not fully specified) | 0 | 0 | 0 | 0 | 12 | 3
15 | ACCCACGTCA (chemistry not fully specified) | 3 | 5 | 3 | 1 | 22 | 10
16 | ACCCCCCCGC (chemistry not fully specified) | 7 | 13 | 16 | 6 | 44 | 38
17 | ACCTGCATCC (chemistry not fully specified) | 0 | 0 | 0 | 0 | 0 | 12
18 | ACCTGGGGAG (chemistry not fully specified) | 1 | 3 | 4 | 3 | 35 | 11
19 | ACGGTCCAGG (chemistry not fully specified) | 0 | 0 | 0 | 1 | 5 | 12
20 | ACTCTTGTTG (chemistry not fully specified) | 0 | 0 | 0 | 0 | 7 | 2
21 | ACTGTGGCGG (chemistry not fully specified) | 9 | 12 | 9 | 4 | 17 | 34
22 | AGAATAGCTT (chemistry not fully specified) | 3 | 9 | 11 | 30 | 44 | 67
23 | AGCAGGAGCA (chemistry not fully specified) | 6 | 3 | 7 | 6 | 50 | 14
24 | AGCCCGACCA (chemistry not fully specified) | 2 | 4 | 1 | 3 | 16 | 8
25 | AGGATGGTCC (chemistry not fully specified; the letters are possibly those of the target site) | 5 | 3 | 6 | 8 | 34 | 19
26 | AGGCCAAGGG (chemistry not fully specified) | 3 | 1 | 3 | 4 | 21 | 6
